The record followed here is patent publication US20230257372A1 (CHONG KUN DANG PHARMACEUTICAL CORP., priority 2020, published 2023).

The target of one experiment is T1, human recombinant HDAC1 (Homo sapiens, UniProt Q13547).
T1 construct: purchased Enzo Life Science, Inc. BML-SE456
The experiment is described as follows: HDAC1 enzyme activity inhibition (HDAC Fluorimetric Drug Discovery Kit). Type of experiment: biochemical. Conditions: human recombinant HDAC1, Fluor de Lys substrate, 30° C. 60 minutes; read-out: HDAC1. In outline: (§1)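 Fluorimetric deacetylase read-out. 5-fold compound dilutions; […] enzyme, 10 μM substrate; 30° C, 60 min; developer 30 min.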

Another experiment has as its target T2, human recombinant HDAC6 (Homo sapiens, UniProt Q9UBN7).
T2 construct: purchased Calbiochem Inc. 382180
T2 sequence (Q9UBN7 1-1215): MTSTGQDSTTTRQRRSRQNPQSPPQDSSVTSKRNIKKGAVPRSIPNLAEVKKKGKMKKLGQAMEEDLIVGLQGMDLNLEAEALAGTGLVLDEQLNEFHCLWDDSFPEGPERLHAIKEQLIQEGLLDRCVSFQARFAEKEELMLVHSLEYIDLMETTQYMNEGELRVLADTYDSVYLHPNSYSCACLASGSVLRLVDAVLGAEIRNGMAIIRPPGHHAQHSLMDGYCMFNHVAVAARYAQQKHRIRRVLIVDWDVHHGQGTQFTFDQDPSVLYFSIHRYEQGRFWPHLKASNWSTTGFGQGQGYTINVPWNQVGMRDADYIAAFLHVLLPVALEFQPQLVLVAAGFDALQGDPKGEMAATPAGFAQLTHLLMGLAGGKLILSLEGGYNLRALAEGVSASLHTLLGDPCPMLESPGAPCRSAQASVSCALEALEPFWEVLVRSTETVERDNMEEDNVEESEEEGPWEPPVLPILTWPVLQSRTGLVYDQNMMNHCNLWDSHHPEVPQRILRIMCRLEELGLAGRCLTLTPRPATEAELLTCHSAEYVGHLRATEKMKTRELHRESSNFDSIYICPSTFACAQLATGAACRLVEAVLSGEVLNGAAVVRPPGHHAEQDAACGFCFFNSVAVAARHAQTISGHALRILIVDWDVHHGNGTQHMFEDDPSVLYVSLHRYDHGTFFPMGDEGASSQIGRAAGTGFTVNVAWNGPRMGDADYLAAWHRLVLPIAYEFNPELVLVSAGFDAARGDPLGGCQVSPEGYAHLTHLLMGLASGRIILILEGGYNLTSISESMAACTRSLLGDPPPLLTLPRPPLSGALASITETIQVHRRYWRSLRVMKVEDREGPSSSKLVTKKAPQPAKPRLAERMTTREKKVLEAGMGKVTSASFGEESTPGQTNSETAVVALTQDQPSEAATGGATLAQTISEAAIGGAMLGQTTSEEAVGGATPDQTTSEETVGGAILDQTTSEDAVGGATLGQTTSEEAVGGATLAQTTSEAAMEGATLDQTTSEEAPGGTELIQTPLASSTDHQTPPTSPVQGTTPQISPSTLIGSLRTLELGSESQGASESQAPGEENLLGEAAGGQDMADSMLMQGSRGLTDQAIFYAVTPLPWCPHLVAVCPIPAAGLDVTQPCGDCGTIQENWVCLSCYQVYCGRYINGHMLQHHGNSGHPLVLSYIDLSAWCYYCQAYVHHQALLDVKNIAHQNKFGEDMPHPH
The experiment is described as follows: HDAC6 enzyme activity inhibition (HDAC Fluorimetric Drug Discovery Kit). Type of experiment: biochemical. As to conditions: for HDAC6 selectivity (fold): HDAC6 over HDAC1; for IC50: human recombinant HDAC6, same protocol as HDAC1. Summed up:
as §1

T1 sequence (Q13547 whole entry): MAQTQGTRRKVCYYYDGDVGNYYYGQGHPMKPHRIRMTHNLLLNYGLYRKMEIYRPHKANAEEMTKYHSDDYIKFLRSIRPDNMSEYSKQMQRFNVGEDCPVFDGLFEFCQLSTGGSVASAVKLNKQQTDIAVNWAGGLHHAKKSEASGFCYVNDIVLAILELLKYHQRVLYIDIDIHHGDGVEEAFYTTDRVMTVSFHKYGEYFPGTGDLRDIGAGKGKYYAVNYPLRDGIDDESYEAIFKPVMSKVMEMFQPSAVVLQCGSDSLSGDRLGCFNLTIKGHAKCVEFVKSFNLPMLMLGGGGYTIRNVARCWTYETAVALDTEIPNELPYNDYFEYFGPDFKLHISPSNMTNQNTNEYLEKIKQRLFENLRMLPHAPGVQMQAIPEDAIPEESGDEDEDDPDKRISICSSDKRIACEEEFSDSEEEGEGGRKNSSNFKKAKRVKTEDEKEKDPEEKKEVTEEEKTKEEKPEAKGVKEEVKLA

For the compound `Fc1cc(-c2nnc(C(F)F)o2)ccc1Cn1cc(-c2cccc(N3CCN(C4CCC4)CC3)n2)nn1` [Compound 17364, 2-(4-((4-(6-(4-cyclobutylpiperazin-1-yl)pyridin-2-yl)-1H-1,2,3-triazol-1-yl)methyl)-3-fluorophenyl)-5-(difluoromethyl)-1,3,4-oxadiazole], the IC50 at human recombinant HDAC1 is more than 50000 nM. Also, on human recombinant HDAC6, the “HDAC6 selectivity (fold)” value is reported as 976 fold and the IC50 was 51.2 nM.

On to `Fc1cc(-c2nnc(C(F)F)o2)ccc1Cn1cc(-c2cccc(N3CCN(C4COC4)CC3)n2)nn1` [Compound 17365, 2-(difluoromethyl)-5-(3-fluoro-4-((4-(6-(4-(oxetan-3-yl)piperazin-1-yl)pyridin-2-yl)-1H-1,2,3-triazol-1-yl)methyl)phenyl)-1,3,4-oxadiazole], for which, on human recombinant HDAC1, the IC50 is more than 50000 nM. On human recombinant HDAC6, the “HDAC6 selectivity (fold)” value is given as 1377 fold and the IC50 is 36.3 nM.

Regarding `Fc1cc(-c2nnc(C(F)F)o2)ccc1Cn1cc(-c2ccc3c(c2)CN(C2CCOCC2)C3)nn1` [Compound 17458, 2-(difluoromethyl)-5-(3-fluoro-4-((4-(2-(tetrahydro-2H-pyran-4-yl)isoindolin-5-yl)-1H-1,2,3-triazol-1-yl)methyl)phenyl)-1,3,4-oxadiazole], the IC50 at human recombinant HDAC1 is more than 50000 nM; on human recombinant HDAC6 it was 80.7 nM. In addition, the “HDAC6 selectivity (fold)” value on human recombinant HDAC6 was 619 fold.

Take `Fc1cc(-c2nnc(C(F)F)o2)ccc1Cn1cc(-c2ccc3c(c2)CN(CC2(F)CC2)C3)nn1` [Compound 17460, 2-(difluoromethyl)-5-(3-fluoro-4-((4-(2-((1-fluorocyclopropyl)methyl)isoindolin-5-yl)-1H-1,2,3-triazol-1-yl)methyl)phenyl)-1,3,4-oxadiazole]: the IC50 at human recombinant HDAC1 was more than 50000 nM; on human recombinant HDAC6 it was 87.4 nM. In addition, on human recombinant HDAC6, the “HDAC6 selectivity (fold)” value came out at 572 fold.

For `OCc1ccc(-c2cn(Cc3ccc(-c4nnc(C(F)F)o4)cc3F)nn2)nc1` [Compound 17545, (6-(1-(4-(5-(difluoromethyl)-1,3,4-oxadiazol-2-yl)-2-fluorobenzyl)-1H-1,2,3-triazol-4-yl)pyridin-3-yl)methanol], the IC50 on human recombinant HDAC1 was more than 50000 nM. Also, on human recombinant HDAC6, the “HDAC6 selectivity (fold)” value is given as 880 fold and the IC50 was found to be 56.8 nM.

Consider `Fc1cc(-c2nnc(C(F)F)o2)ccc1Cn1cc(-c2ccc(C3CN(C4CCC4)C3)cc2)nn1` [Compound 17699, 2-(4-((4-(4-(1-cyclobutylazetidin-3-yl)phenyl)-1H-1,2,3-triazol-1-yl)methyl)-3-fluorophenyl)-5-(difluoromethyl)-1,3,4-oxadiazole], for which the IC50 on human recombinant HDAC1 was more than 50000 nM. Further, on human recombinant HDAC6, the “HDAC6 selectivity (fold)” value was determined as 1043 fold and the IC50 came to 47.9 nM.

In the case of `Fc1cc(-c2nnc(C(F)F)o2)ccc1Cn1cc(-c2ccc(C3CN(C4COC4)C3)cc2)nn1` [Compound 17700, 2-(difluoromethyl)-5-(3-fluoro-4-((4-(4-(1-(oxetan-3-yl)azetidin-3-yl)phenyl)-1H-1,2,3-triazol-1-yl)methyl)phenyl)-1,3,4-oxadiazole], the figures for the IC50 on human recombinant HDAC1 and at human recombinant HDAC6 were more than 50000 nM and 79.8 nM, respectively. Besides, the “HDAC6 selectivity (fold)” value on human recombinant HDAC6 worked out at 626 fold.

For `Fc1cc(-c2nnc(C(F)F)o2)ccc1Cn1cc(-c2ccc(CN3CC[C@H](F)C3)nc2)nn1` [Compound 17773, (S)-2-(difluoromethyl)-5-(3-fluoro-4-((4-(6-((3-fluoropyrrolidin-1-yl)methyl)pyridin-3-yl)-1H-1,2,3-triazol-1-yl)methyl)phenyl)-1,3,4-oxadiazole], the results for the IC50 at human recombinant HDAC1 and at human recombinant HDAC6 were more than 50000 nM and 65 nM, respectively. The “HDAC6 selectivity (fold)” value on human recombinant HDAC6 worked out at 769 fold.

For the compound `Fc1cc(-c2nnc(C(F)F)o2)ccc1Cn1cc(-c2ccc(CN3CC[C@@H](F)C3)nc2)nn1` [Compound 17774, (R)-2-(difluoromethyl)-5-(3-fluoro-4-((4-(6-((3-fluoropyrrolidin-1-yl)methyl)pyridin-3-yl)-1H-1,2,3-triazol-1-yl)methyl)phenyl)-1,3,4-oxadiazole], the IC50 at human recombinant HDAC1 is more than 50000 nM; at human recombinant HDAC6 it was 55.7 nM. Further, the “HDAC6 selectivity (fold)” value at human recombinant HDAC6 stood at 897 fold.

Turning to `Fc1cc(-c2nnc(C(F)F)o2)ccc1Cn1cc(-c2ccc(CN3CCC(F)(F)C3)nc2)nn1` [Compound 17775, 2-(difluoromethyl)-5-(4-((4-(6-((3,3-difluoropyrrolidin-1-yl)methyl)pyridin-3-yl)-1H-1,2,3-triazol-1-yl)methyl)-3-fluorophenyl)-1,3,4-oxadiazole], the IC50 at human recombinant HDAC1 is more than 50000 nM. Moreover, on human recombinant HDAC6, the “HDAC6 selectivity (fold)” value is 531 fold and the IC50 came out at 94.1 nM.

As for `CC1(C)CCN(Cc2ccc(-c3cn(Cc4ccc(-c5nnc(C(F)F)o5)cc4F)nn3)cn2)CC1` [Compound 17777, 2-(difluoromethyl)-5-(4-((4-(6-((4,4-dimethylpiperidin-1-yl)methyl)pyridin-3-yl)-1H-1,2,3-triazol-1-yl)methyl)-3-fluorophenyl)-1,3,4-oxadiazole], the IC50 at human recombinant HDAC1 was more than 50000 nM; at human recombinant HDAC6, 52.5 nM. In addition, the “HDAC6 selectivity (fold)” value at human recombinant HDAC6 is on record as 952 fold.

Turning to `Fc1cc(-c2nnc(C(F)F)o2)ccc1Cn1cc(-c2ccc(CN3CCC(F)(F)CC3)nc2)nn1` [Compound 17778, 2-(difluoromethyl)-5-(4-((4-(6-((4,4-difluoropiperidin-1-yl)methyl)pyridin-3-yl)-1H-1,2,3-triazol-1-yl)methyl)-3-fluorophenyl)-1,3,4-oxadiazole], the IC50 on human recombinant HDAC1 was more than 50000 nM. On human recombinant HDAC6, the “HDAC6 selectivity (fold)” value is 603 fold and the IC50 was 82.9 nM.

`Fc1cc(-c2nnc(C(F)F)o2)ccc1Cn1cc(-c2nccs2)nn1` [Compound 17848, 2-(difluoromethyl)-5-(3-fluoro-4-((4-(thiazol-2-yl)-1H-1,2,3-triazol-1-yl)methyl)phenyl)-1,3,4-oxadiazole]: the IC50 was more than 50000 nM at human recombinant HDAC1 and 77.3 nM on human recombinant HDAC6. The “HDAC6 selectivity (fold)” value on human recombinant HDAC6 is listed as 646 fold.

On to `Fc1cc(-c2nnc(C(F)F)o2)ccc1Cn1cc(-c2cncs2)nn1` [Compound 17851, 2-(difluoromethyl)-5-(3-fluoro-4-((4-(thiazol-5-yl)-1H-1,2,3-triazol-1-yl)methyl)phenyl)-1,3,4-oxadiazole], for which the IC50 at human recombinant HDAC1 was more than 50000 nM. Besides, at human recombinant HDAC6, the “HDAC6 selectivity (fold)” value stood at 588 fold and the IC50 was determined as 84.9 nM.

Take `Cc1csc(-c2cn(Cc3ccc(-c4nnc(C(F)F)o4)cc3F)nn2)n1` [Compound 17854, 2-(difluoromethyl)-5-(3-fluoro-4-((4-(4-methylthiazol-2-yl)-1H-1,2,3-triazol-1-yl)methyl)phenyl)-1,3,4-oxadiazole]: the IC50 on human recombinant HDAC1 is more than 50000 nM. Besides, on human recombinant HDAC6, the “HDAC6 selectivity (fold)” value is recorded as 599 fold and the IC50 was determined as 83.4 nM.

Consider `Cc1cnc(-c2cn(Cc3ccc(-c4nnc(C(F)F)o4)cc3F)nn2)s1` [Compound 17857, 2-(difluoromethyl)-5-(3-fluoro-4-((4-(5-methylthiazol-2-yl)-1H-1,2,3-triazol-1-yl)methyl)phenyl)-1,3,4-oxadiazole], for which the IC50 at human recombinant HDAC1 was more than 50000 nM; on human recombinant HDAC6 it was 61.8 nM. The “HDAC6 selectivity (fold)” value at human recombinant HDAC6 came to 809 fold.

Consider `Fc1cc(-c2nnc(C(F)F)o2)ccc1Cn1cc(-c2ccc(CN3CCC3)s2)nn1` [Compound 17912, 2-(4-((4-(5-(azetidin-1-ylmethyl)thiophen-2-yl)-1H-1,2,3-triazol-1-yl)methyl)-3-fluorophenyl)-5-(difluoromethyl)-1,3,4-oxadiazole], for which the IC50 at human recombinant HDAC1 is more than 50000 nM. At human recombinant HDAC6, the “HDAC6 selectivity (fold)” value was found to be 1237 fold and the IC50 was 40.4 nM.

With `Fc1cc(-c2nnc(C(F)F)o2)ccc1Cn1cc(-c2ccc(CN3CCCC3)s2)nn1` [Compound 17913, 2-(difluoromethyl)-5-(3-fluoro-4-((4-(5-(pyrrolidin-1-ylmethyl)thiophen-2-yl)-1H-1,2,3-triazol-1-yl)methyl)phenyl)-1,3,4-oxadiazole], the IC50 on human recombinant HDAC1 is more than 50000 nM; at human recombinant HDAC6, 32.3 nM. In addition, on human recombinant HDAC6, the “HDAC6 selectivity (fold)” value came out at 1547 fold.
